The values below are quoted from earlier work in patent US7820159B2, “MN/CA IX and EGFR pathway inhibition” (Instiute of Virology of the Slovak Academy of Sciences, priority 2006, dated 2010).

One series concerns MEK. The following applies: non-ATP competitive allosteric inhibitors, unlike the majority of ATP-competitive analogs.
The test system of a further series is tumor xenograft models. The following applies: in vivo.
Experiment in series [1]: not given
This is another data set of the same source.

For series [2] the following is noted: patients.
For the next series, the target named is T1, MN (Homo sapiens, UniProt Q16790).
T1 construct: Phase I and II clinical trials of an MN-specific drug, Rencarex®; host or cells: endogenous MN/CA IX in human trial patients
The following applies: patients.

For the molecule `Cn1cnc2c(F)c(Nc3ccc(Br)cc3Cl)c(C(=O)NOCCO)cc21` [ARRY-142886], the “Selectivity for MEK in biochemical assays” value in the series with MEK is “high selectivity for MEK”. For the same molecule, the “Anti-tumor activity in tumor xenograft models” value in the series with tumor xenograft models was “potent anti-tumor activity”.

For `O=C(NOC[C@H](O)CO)c1ccc(F)c(F)c1Nc1ccc(I)cc1F` [PD-0325901], the “Solubility compared with CI-1040” value was “more soluble”. Further, the “Metabolic stability compared with CI-1040” value in series [1] is given as “improved”. Further, in the series with tumor xenograft models, the “Anti-tumor activity in tumor xenograft models” value is reported as “potent anti-tumor activity”.

For “Rencarex®: an MN-specific drug tested in Phase I and II clinical trials”, the “Drug-related side effects in Phase I and II clinical trials” value in series [2] is “no serious drug-related side effects”. For the same molecule, the “Tolerability in Phase I and II clinical trials” value with MN is on record as “well-tolerated”.
